According to US6706663B2, “Herbicidal 3-heterocyclic substituted benzisothiazole and benzisoxazole compounds” (Wyeth, priority 2000, dated 2004):

What was measured:
ORYSAT (Rice, Tebonnet) [1] = test: Preemergence herbicidal evaluation; type: in vivo, Oryza sativa, (L.) Tebonnet; conditions: rated 4-5 weeks after treatment
[2] = test system: TRZAWR (Wheat, Winter, cv Riband); test: Preemergence herbicidal evaluation; type: in vivo, Triticum aestivum; conditions: rated 4-5 weeks after treatment
Method in brief: (§1)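 Rating 0–9, visual, vs control; 4–5 wk after spraying seeded cups with compound in aq. acetone; conventional greenhouse care.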

[3] = test system: ABUTH (Abutilon theophrasti); test: Preemergence herbicidal evaluation; type: in vivo, Medic.; conditions: rated 4-5 weeks after treatment
[4] = test system: SAGPY (Sagittaria pygmaea); test: Flooded paddy, preemergence weed control; type: in vivo, L.; conditions: rated 3-4 weeks after treatment, 0-9 rating scale
Method in brief: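 Preemergence, flooded: propagules planted at 0.5 cm depth in silt loam, water level maintained at 1.5 to 3 cm over soil, containers kept on greenhouse benches. Activity scored 0-9 by eye relative to a control plant.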

[5] = test system: IPOHE (Ipomoea hederacea); test: Preemergence herbicidal evaluation; type: in vivo, (L.) Jacq.; conditions: rated 4-5 weeks after treatment
[6] = test system: ECHCG (Echinochloa crus-galli); test: Postemergence herbicidal evaluation; type: in vivo, (L.) Beau; conditions: postemergence
Method in brief: (§2)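 Visual 0–9 injury scores versus control plants, covering stand, vigour, malformation, size, chlorosis and general appearance, taken four to five weeks post-spray and averaged over replicate tests. Plants were sprayed at roughly two weeks old and held on greenhouse benches.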

[7] = test system: ABUTH (Abutilon theophrasti); test: Postemergence herbicidal evaluation; type: in vivo, Medic.; conditions: postemergence
Method in brief: as §2

ZEAMX (Corn, Field) = test: Postemergence herbicidal evaluation; type: in vivo, Zea mays, L.; conditions: postemergence
Method in brief: as §2

[8] = test system: GLXMAW (Soybean, Williams); test: Postemergence herbicidal evaluation; type: in vivo, Glycine max, (L.) Merr. cv Williams; conditions: postemergence
Method in brief: as §2

ORYSAT (Rice, Tebonnet) [9] = test: Flooded paddy, post-transplant rice tolerance; type: in vivo, Oryza sativa, (L.) Tebonnet; conditions: flooded paddy, post-transplant rice, rated 3-4 weeks after treatment, 0-9 rating scale
Method in brief: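 Scores (0-9) reflect visual injury relative to untreated plants in flooded silt loam. Each pot held two transplanted ten-day-old seedlings under 1.5 to 3 cm standing water in the greenhouse.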

GALAP (Galium aparine) [10] = test: Preemergence herbicidal evaluation; type: in vivo; conditions: rated 4-5 weeks after treatment
Method in brief: as §1

ORYSAT (Rice, Tebonnet) [11] = test: Postemergence herbicidal evaluation; type: in vivo, Oryza sativa, (L.) Tebonnet; conditions: postemergence
Method in brief: as §2

GALAP (Galium aparine) [12] = test: Postemergence herbicidal evaluation; type: in vivo; conditions: postemergence
Method in brief: as §2

[13] = test system: AMBEL (Ambrosia artemisifolia); test: Preemergence herbicidal evaluation; type: in vivo, L.; conditions: rated 4-5 weeks after treatment
Method in brief: as §1

[14] = test system: CASOB (Cassia obtusifolia); test: Preemergence herbicidal evaluation; type: in vivo, L.; conditions: rated 4-5 weeks after treatment
Method in brief: as §1

[15] = test system: CHEAL (Chenopodium album); test: Preemergence herbicidal evaluation; type: in vivo, L.; conditions: rated 4-5 weeks after treatment
Method in brief: as §1

[16] = test system: AMBEL (Ambrosia artemisifolia); test: Postemergence herbicidal evaluation; type: in vivo, L.; conditions: postemergence
Method in brief: as §2

[17] = test system: CASOB (Cassia obtusifolia); test: Postemergence herbicidal evaluation; type: in vivo, L.; conditions: postemergence
Method in brief: as §2

[18] = test system: CHEAL (Chenopodium album); test: Postemergence herbicidal evaluation; type: in vivo, L.; conditions: postemergence
Method in brief: as §2

C=C1COC(c2nsc3ccc(-n4c(=O)cc(C(F)(F)F)n(C)c4=O)cc23)OC1 [Compound 58, 2,4(1H,3H)-pyrimidinedione, 1-methyl-3-[3-(5-methylene-m-dioxan-2-yl)-1,2-benzisothiazol-5-yl]-6-(trifluoromethyl)-]
3.5: ORYSAT herbicidal rating (ORYSAT (Rice, Tebonnet) [11]; rate 0.0320 kg/ha)
4.0: herbicidal rating, ORYSAT (rice tolerance) (ORYSAT (Rice, Tebonnet) [9]; rate 0.0320 kg/ha)
5.0: herbicidal rating, SAGPY ([4]; rate 0.1250 kg/ha) | ORYSAT herbicidal rating (ORYSAT (Rice, Tebonnet) [11]; rate 0.0620 kg/ha) | CHEAL herbicidal rating ([18]; rate 0.0620 kg/ha)
1.0: ECHCG herbicidal rating ([6]; rate 0.0320 kg/ha) | CASOB herbicidal rating ([17]; rate 0.0320 kg/ha)
7.5: Preemergence herbicidal rating IPOHE ([5]; Rate 0.1250 kg/ha) | GLXMAW herbicidal rating ([8]; rate 0.0620 kg/ha)
9.0: Preemergence herbicidal rating ORYSAT (ORYSAT (Rice, Tebonnet) [1]; Rate 0.1250 kg/ha) | Preemergence herbicidal rating ORYSAT (ORYSAT (Rice, Tebonnet) [1]; Rate 0.2500 kg/ha) | Preemergence herbicidal rating ABUTH ([3]; Rate 0.0620 kg/ha) | Preemergence herbicidal rating ABUTH ([3]; Rate 0.1250 kg/ha) | Preemergence herbicidal rating ABUTH ([3]; Rate 0.2500 kg/ha) | Preemergence herbicidal rating IPOHE ([5]; Rate 0.2500 kg/ha) | ABUTH herbicidal rating ([7]; rate 0.0320 kg/ha) | ABUTH herbicidal rating ([7]; rate 0.0620 kg/ha) | Preemergence herbicidal rating GALAP (GALAP (Galium aparine) [10]; Rate 0.0620 kg/ha) | Preemergence herbicidal rating GALAP (GALAP (Galium aparine) [10]; Rate 0.1250 kg/ha) | Preemergence herbicidal rating GALAP (GALAP (Galium aparine) [10]; Rate 0.2500 kg/ha) | GALAP herbicidal rating (GALAP (Galium aparine) [12]; rate 0.0620 kg/ha) | Preemergence herbicidal rating AMBEL ([13]; Rate 0.0620 kg/ha) | Preemergence herbicidal rating AMBEL ([13]; Rate 0.1250 kg/ha) | Preemergence herbicidal rating AMBEL ([13]; Rate 0.2500 kg/ha) | Preemergence herbicidal rating CASOB ([14]; Rate 0.2500 kg/ha) | Preemergence herbicidal rating CHEAL ([15]; Rate 0.0620 kg/ha) | Preemergence herbicidal rating CHEAL ([15]; Rate 0.1250 kg/ha) | Preemergence herbicidal rating CHEAL ([15]; Rate 0.2500 kg/ha) | AMBEL herbicidal rating ([16]; rate 0.0320 kg/ha) | AMBEL herbicidal rating ([16]; rate 0.0620 kg/ha)
8.0: Preemergence herbicidal rating TRZAWR ([2]; Rate 0.1250 kg/ha) | Preemergence herbicidal rating TRZAWR ([2]; Rate 0.2500 kg/ha) | CASOB herbicidal rating ([17]; rate 0.0620 kg/ha)
2.0: herbicidal rating, SAGPY ([4]; rate 0.0320 kg/ha)
7.0: Preemergence herbicidal rating TRZAWR ([2]; Rate 0.0620 kg/ha) | GLXMAW herbicidal rating ([8]; rate 0.0320 kg/ha) | herbicidal rating, ORYSAT (rice tolerance) (ORYSAT (Rice, Tebonnet) [9]; rate 0.1250 kg/ha) | GALAP herbicidal rating (GALAP (Galium aparine) [12]; rate 0.0320 kg/ha)
6.5: Preemergence herbicidal rating IPOHE ([5]; Rate 0.0620 kg/ha) | Preemergence herbicidal rating CASOB ([14]; Rate 0.1250 kg/ha)
8.5: Preemergence herbicidal rating ORYSAT (ORYSAT (Rice, Tebonnet) [1]; Rate 0.0620 kg/ha)
5.5: ZEAMX herbicidal rating (ZEAMX (Corn, Field); rate 0.0320 kg/ha) | ZEAMX herbicidal rating (ZEAMX (Corn, Field); rate 0.0620 kg/ha) | Preemergence herbicidal rating CASOB ([14]; Rate 0.0620 kg/ha)
3.0: ECHCG herbicidal rating ([6]; rate 0.0620 kg/ha) | CHEAL herbicidal rating ([18]; rate 0.0320 kg/ha)

Cc1cnn(-c2nsc3ccc(-n4c(=O)cc(C(F)(F)F)n(C)c4=O)cc23)c1 [Compound 59, 1-methyl-3-[3-(4-methylpyrazol-1-yl)-1,2-benzisothiazol-5-yl]-6-(trifluoromethyl)uracil]
4.0: Preemergence herbicidal rating GALAP (GALAP (Galium aparine) [10]; Rate 0.2500 kg/ha)
6.0: Preemergence herbicidal rating AMBEL ([13]; Rate 0.2500 kg/ha)
2.5: ORYSAT herbicidal rating (ORYSAT (Rice, Tebonnet) [11]; rate 0.0620 kg/ha) | ORYSAT herbicidal rating (ORYSAT (Rice, Tebonnet) [11]; rate 0.1250 kg/ha)
9.0: Preemergence herbicidal rating ABUTH ([3]; Rate 0.1250 kg/ha) | ABUTH herbicidal rating ([7]; rate 0.0320 kg/ha) | ABUTH herbicidal rating ([7]; rate 0.0620 kg/ha) | ABUTH herbicidal rating ([7]; rate 0.1250 kg/ha) | Preemergence herbicidal rating CHEAL ([15]; Rate 0.0620 kg/ha) | Preemergence herbicidal rating CHEAL ([15]; Rate 0.1250 kg/ha) | Preemergence herbicidal rating CHEAL ([15]; Rate 0.2500 kg/ha) | AMBEL herbicidal rating ([16]; rate 0.0320 kg/ha) | AMBEL herbicidal rating ([16]; rate 0.0620 kg/ha) | AMBEL herbicidal rating ([16]; rate 0.1250 kg/ha) | CHEAL herbicidal rating ([18]; rate 0.0620 kg/ha) | CHEAL herbicidal rating ([18]; rate 0.1250 kg/ha)
5.5: ZEAMX herbicidal rating (ZEAMX (Corn, Field); rate 0.0320 kg/ha)
5.0: Preemergence herbicidal rating GALAP (GALAP (Galium aparine) [10]; Rate 0.0620 kg/ha) | Preemergence herbicidal rating GALAP (GALAP (Galium aparine) [10]; Rate 0.1250 kg/ha) | Preemergence herbicidal rating AMBEL ([13]; Rate 0.1250 kg/ha)
0.0: Preemergence herbicidal rating ABUTH ([3]; Rate 0.0620 kg/ha) | herbicidal rating, SAGPY ([4]; rate 0.0080 kg/ha) | herbicidal rating, SAGPY ([4]; rate 0.0320 kg/ha) | herbicidal rating, SAGPY ([4]; rate 0.1250 kg/ha) | Preemergence herbicidal rating IPOHE ([5]; Rate 0.0620 kg/ha) | ECHCG herbicidal rating ([6]; rate 0.0320 kg/ha) | ECHCG herbicidal rating ([6]; rate 0.0620 kg/ha) | herbicidal rating, ORYSAT (rice tolerance) (ORYSAT (Rice, Tebonnet) [9]; rate 0.0080 kg/ha) | herbicidal rating, ORYSAT (rice tolerance) (ORYSAT (Rice, Tebonnet) [9]; rate 0.0320 kg/ha) | herbicidal rating, ORYSAT (rice tolerance) (ORYSAT (Rice, Tebonnet) [9]; rate 0.1250 kg/ha) | GALAP herbicidal rating (GALAP (Galium aparine) [12]; rate 0.0320 kg/ha) | Preemergence herbicidal rating AMBEL ([13]; Rate 0.0620 kg/ha) | Preemergence herbicidal rating CASOB ([14]; Rate 0.0620 kg/ha) | Preemergence herbicidal rating CASOB ([14]; Rate 0.1250 kg/ha) | Preemergence herbicidal rating CASOB ([14]; Rate 0.2500 kg/ha) | CASOB herbicidal rating ([17]; rate 0.0320 kg/ha)
2.0: Preemergence herbicidal rating ORYSAT (ORYSAT (Rice, Tebonnet) [1]; Rate 0.1250 kg/ha) | Preemergence herbicidal rating ORYSAT (ORYSAT (Rice, Tebonnet) [1]; Rate 0.2500 kg/ha) | Preemergence herbicidal rating TRZAWR ([2]; Rate 0.1250 kg/ha) | Preemergence herbicidal rating TRZAWR ([2]; Rate 0.2500 kg/ha) | ORYSAT herbicidal rating (ORYSAT (Rice, Tebonnet) [11]; rate 0.0320 kg/ha)
7.0: Preemergence herbicidal rating ABUTH ([3]; Rate 0.2500 kg/ha) | ZEAMX herbicidal rating (ZEAMX (Corn, Field); rate 0.1250 kg/ha)
7.5: GLXMAW herbicidal rating ([8]; rate 0.0320 kg/ha) | GLXMAW herbicidal rating ([8]; rate 0.0620 kg/ha)
3.0: Preemergence herbicidal rating IPOHE ([5]; Rate 0.2500 kg/ha) | ECHCG herbicidal rating ([6]; rate 0.1250 kg/ha) | GALAP herbicidal rating (GALAP (Galium aparine) [12]; rate 0.0620 kg/ha) | GALAP herbicidal rating (GALAP (Galium aparine) [12]; rate 0.1250 kg/ha) | CASOB herbicidal rating ([17]; rate 0.0620 kg/ha) | CASOB herbicidal rating ([17]; rate 0.1250 kg/ha)
6.5: ZEAMX herbicidal rating (ZEAMX (Corn, Field); rate 0.0620 kg/ha)
1.0: Preemergence herbicidal rating ORYSAT (ORYSAT (Rice, Tebonnet) [1]; Rate 0.0620 kg/ha) | Preemergence herbicidal rating TRZAWR ([2]; Rate 0.0620 kg/ha) | Preemergence herbicidal rating IPOHE ([5]; Rate 0.1250 kg/ha)
8.0: GLXMAW herbicidal rating ([8]; rate 0.1250 kg/ha) | CHEAL herbicidal rating ([18]; rate 0.0320 kg/ha)
